Measurements published in PubChem BioAssay (NCI).
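In this assay, cells in 96-well plates receive the compound at five concentrations for 48 hours. Endpoints are linearly interpolated between the surrounding concentrations. GI50 is the concentration that inhibits growth by half. Definition used: TGI = concentration required for complete inhibition of growth.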

What was measured:
Test in all cases: DTP human tumour cell line panel, 48 h
LOX IMVI melanoma = test system: LOX IMVI melanoma
A549 NSCLC = test system: A549 NSCLC
SF-295 CNS = test system: SF-295 CNS
SNB-19 CNS = test system: SNB-19 CNS
SNB-75 CNS = test system: SNB-75 CNS
NCI-H522 lung = test system: NCI-H522 lung
K-562 leukemia = test system: K-562 leukemia
OVCAR-4 ovarian = test system: OVCAR-4 ovarian
MOLT-4 leukemia = test system: MOLT-4 leukemia
T-47D breast = test system: T-47D breast

Row | Structure (SMILES) | TGI (LOX IMVI melanoma) | TGI (A549 NSCLC) | TGI (SF-295 CNS) | TGI (SNB-19 CNS) | TGI (SNB-75 CNS) | TGI (NCI-H522 lung) | TGI (K-562 leukemia) | TGI (OVCAR-4 ovarian) | TGI (MOLT-4 leukemia) | TGI (T-47D breast) | GI50 (LOX IMVI melanoma) | GI50 (A549 NSCLC) | GI50 (SF-295 CNS) | GI50 (SNB-19 CNS) | GI50 (T-47D breast) | GI50 (SNB-75 CNS) | GI50 (NCI-H522 lung) | GI50 (OVCAR-4 ovarian) | GI50 (MOLT-4 leukemia)
1 | CN(C)CC(/C(Cc1ccccc1)=N\NC(=O)c1ccncc1)c1ccccc1 (centres undefined) | > 100 µM | > 100 µM | 68.3 µM | > 100 µM | 92.8 µM | > 100 µM | > 100 µM | > 100 µM |  |  |  |  |  |  |  |  |  |  | 
2 | N/N=C(\CC1OC(=O)c2ccccc21)c1ccco1 (centres undefined) | > 100 µM | > 100 µM | > 100 µM | > 100 µM | > 100 µM | > 100 µM | > 100 µM | > 100 µM | > 100 µM |  |  |  |  |  |  |  |  |  | 
3 | CC1(CO)OC1COCc1ccccc1 (centres undefined) | > 100 µM | > 100 µM | > 100 µM | > 100 µM | > 100 µM |  | > 100 µM |  | > 100 µM |  |  |  |  |  |  |  |  |  | 
4 | c1cc2c(cc1C(N1CCNCC1)N1CCNCC1)OCO2 | > 100 µM | > 100 µM | > 100 µM | > 100 µM | > 100 µM | > 100 µM | 5.6 µM | > 100 µM |  | > 100 µM |  |  |  |  |  |  |  |  | 
5 | CC1Cc2c(N)nc(NN)nc2NC1=O (centres undefined) | > 100 µM | > 100 µM | > 100 µM | > 100 µM | > 100 µM | > 100 µM | > 100 µM |  | > 100 µM |  |  |  |  |  |  |  |  |  | 
6 | Nc1nc(Nc2ccc3c(c2)CC[C@@H](N2CCCC2)CC3)nn1-c1cc2c(nn1)-c1ccccc1CCC2 | 2.92 µM | 3.57 µM | 3.51 µM | 3.45 µM | 2.48 µM | 3.79 µM |  | 3.31 µM | 3.63 µM | 5.1 µM | 1500 nM | 1630 nM | 1880 nM | 1830 nM | 2160 nM | 1220 nM | 1750 nM | 1440 nM | 820 nM
7 | CC(=O)OCSc1ncnc2c1ncn2CN1CCOCC1 | 76.6 µM | > 100 µM | > 100 µM | > 100 µM | > 100 µM | > 100 µM | > 100 µM | > 100 µM | > 100 µM |  |  |  |  |  |  |  |  |  | 
8 | O=C(O)c1c2c(c(C(=O)O)c3ccccc13)-c1ccccc1-2 | > 100 µM | > 100 µM | > 100 µM | > 100 µM | > 100 µM | > 100 µM | > 100 µM |  | > 100 µM |  |  |  |  |  |  |  |  |  | 
9 | COc1ccc(C2S/C(=C\c3cc(OC)c(OC)c(OC)c3)C(=O)N2NC(=O)Cc2ccccc2)cc1 (centres undefined) | > 100 µM | > 100 µM | > 100 µM |  | > 100 µM | > 100 µM | > 100 µM | > 100 µM | > 100 µM |  |  |  |  |  |  |  |  |  | 
10 | COc1ccc(C(=O)C(c2ccc(OC)cc2)C2(O)C(=O)Nc3c(C)cc(Cl)cc32)cc1 (centres undefined) |  | > 100 µM | > 100 µM | > 100 µM | > 100 µM | > 100 µM | > 100 µM | > 100 µM | 54.5 µM |  |  |  |  |  |  |  |  |  | 
11 | O=[N+]([O-])c1ccc(Sc2c3ccccc3nc3ccccc23)cc1 | > 100 µM | > 100 µM | > 100 µM | > 100 µM | > 100 µM | > 100 µM | > 100 µM | > 100 µM | > 100 µM |  |  |  |  |  |  |  |  |  | 
12 | N#Cc1ccccc1NC(=O)/C(=N\NC(=O)c1ccncc1)C(c1cnc2ccc([N+](=O)[O-])cc2n1)[N+](=O)[O-] (centres undefined) | > 100 µM | > 100 µM | > 100 µM |  | > 100 µM | > 100 µM |  | > 100 µM | > 100 µM | > 100 µM |  |  |  |  |  |  |  |  | 
